Data from patent publication US20060258582A1, “Method of treating myelodysplastic syndromes” (Scios, Inc., priority 2004, published 2006).
pIC50: −log10 of the molar value.

Key:
[1] = system: MDS CD34+ progenitors; assay: methylcellulose clonogenic assay, MDS CD34+ progenitors; format: cell-based, human; conditions: for erythroid (BFU-E) and myeloid (CFU-GM) colony formation in MDS CD34+ bone marrow cells: in vitro, methylcellulose
Description: MDS BM-derived CD34+ cells from 19 patients with MDS (Table 5) were cultured in methylcellulose in the presence and absence of increasing concentrations of compound 57. Results are expressed as means+/−SEM of 19 independent experiments.
(A) Total colony numbers of (A) Blast Forming unit-erythroid (BFU-E) and (B) Colony forming unit-Granulocytic Macrophage (CFU-GM) before (control) and after compound 57 treatment (100 nM) of 19 patients with MDS (Table 5).
(§1) All participants in the study signed informed consent, approved by the institutional review board of UT Southwestern and Dallas VA Medical Center. Hematopoietic progenitor colony formation was determined by clonogenic assays in methylcellulose, as detailed in previous studies. A total of 1×10^4 isolated CD34+ progenitor cells in 0.4 ml IMDM+2% FBS were resuspended in 4 ml MethoCult® (Stem Cell Technologies) and vortexed vigorously. The CD34+ cell:methylcellulose mixture was dispensed into 35 mm culture dishes (1×10^3 cells/35 mm plate) using sterile 3 cc syringe with attached sterile 16-gauge blunt-end needle. Cell cultures were incubated at 37° C., 5% CO2 in air and >95% humidity for 14-16 days. Granulocyte/macrophage colony-forming (CFU-GM) units and erythroid burst forming units (BFU-E) from different samples were scored on day 14 of culture.

[2] = system: normal CD34+ progenitors; assay: methylcellulose clonogenic assay, cytokine-suppressed normal CD34+ progenitors; format: cell-based, human
Description: Primary bone marrow derived CD34+ cells were cultured in methylcellulose in the presence and absence of 20 ng/ml TNFα and with the indicated concentrations of compound 57 (nM). BFU-E and CFU-GM colonies were scored on Day 14. Results are expressed as means+/−S.E.M. of three independent experiments.
Primary bone marrow derived CD34+ cells were cultured in methylcellulose in the presence and absence of […] IFNγ and with the indicated concentrations of the p38α inhibitors (compound 57; nM) or compound 162. BFU-E and CFU-GM colonies were scored on Day 14. Results are expressed as means+/−S.E.M. of three independent experiments.
as §1, with “Cell cultures were incubated at 37° C., 5% CO2 in air and >95% humidity for 14-16 days.” left out

[3] = system: TNFα secretion from BMMNC; assay: basal and LPS-induced TNFα secretion from normal BMMNC, ELISA; format: cell-based; conditions: Homo sapiens, basal or LPS-induced normal BMMNC cultures, 24 h, read-out: IC50 for inhibition of TNFα secretion
Description: BMMNC (1×10^6) from a normal healthy donor were cultured in the absence and presence of increasing concentrations of compound 57 for 24 hours without or with 10 ng/ml LPS. TNFα concentration in cell supernatants were determined by ELISA. Figure represents Mean+/−SD of three independent experiments.
(§2) TNFα, IL-6, VEGF, and IFNγ concentrations of the cell culture supernatants were assayed using ELISA kits from BioSource International (Camarillo, Calif.). MCP-1, MMP-2 and MMP-9 concentrations were assayed using ELISA kits from R&D Systems.

[4] = molecular target: p38α (Homo sapiens, UniProt Q16539); assay: direct enzymatic assay for inhibition of p38α; format: biochemical; conditions: direct enzymatic assays
Description: (§3) The p38α MAPK inhibitor compound 57 was synthesized by Medicinal Chemistry (Scios, Inc., Fremont, Calif.). compound 57 has an IC50 of 9 nM for inhibition of p38α based on direct enzymatic assays, about 10-fold selectivity for p38α over p38β, and at least 2000-fold selectivity for p38α over a panel of 20 other kinases, including other MAPKs.

[5] = system: LPS-induced TNFα secretion in whole human blood; assay: cell based assay, LPS-induced TNFα secretion in whole human blood; conditions: read-out: IC50 for inhibition of LPS-induced TNFα secretion
Description: Other in vitro assays can assess the production of TNF-α as a correlation to p38 MAP kinase activity. One such example is a Human Whole Blood Assay. In this assay, venous blood is collected from, e.g., healthy male volunteers into a heparinized syringe and is used within 2 hours of collection. Test compounds are dissolved in 100% DMSO and 1 μl aliquots of drug concentrations ranging from 0 to 1 mM are dispensed into quadruplicate wells of a 24-well microtiter plate (Nunclon Delta SI, Applied Scientific Co., San Francisco, Calif.). Whole blood is added at a volume of 1 ml/well and the mixture is incubated for 15 minutes with constant shaking (Titer Plate Shaker, Lab-Line Instruments, Inc., Melrose Park, Ill.) at a humidified atmosphere of 5% CO2 at 37° C. Whole blood is cultured either undiluted or at a final dilution of 1:10 with RPMI 1640 (Gibco 31800+NaHCO3, Life Technologies, Rockville, Md. and Scios, Inc., Sunnyvale, Calif.). At the end of the incubation period, 10 μl of LPS (E. coli 0111:B4, Sigma Chemical Co., St. Louis, Mo.) is added to each well to a final concentration of 1 or 0.1 μg/ml for undiluted or 1:10 diluted whole blood, respectively. The incubation is continued for an additional 2 hours. The reaction is stopped by placing the microtiter plates in an ice bath, and plasma or cell-free supernates are collected by centrifugation at 3000 rpm for 10 minutes at 4° C. […]

[6] = system: BMSC; assay: cDNA microarray analysis of chemokines in TNFα- or IL-1β-stimulated BMSC; format: cell-based, human
Source text: Details of microarray and data analysis have been described previously. The data was normalized using the maNorm function in array package of Bioconductor version 1.5.8. Differential expression values were expressed as the ratio of the median of background-subtracted fluorescence intensity of the experimental RNA to the median of background-subtracted fluorescence intensity of the control RNA. The total BMSC RNA was extracted from cells using Qiagen's RNeasy kit (Valencia, Calif.). Arrays were probed in quadruplicate for a total of 16 hybridizations: control versus TNFα (24 hours), TNFα versus compound 57+TNFα (24 hours), control versus IL-1β (24 hours), IL-1β versus compound 57+IL-1β (24 hours).

[7] = system: IFNγ production; assay: IFNγ production in IL-12 and IL-18-induced BMMNC, ELISA; format: cell-based; conditions: Homo sapiens, 24 hours, read-out: IC50 for block of IFNγ production
Description: BMMNC (1×10^6) from a normal healthy donor were stimulated with IL-12, IL-18 or both in the presence or absence of increasing concentrations of compound 57 for 24 h. IFN-γ concentration in cell supernatants was determined by ELISA. Figure represents Mean+/−SD of three independent experiments.
as §2

[8] = molecular target: p38β (Homo sapiens, UniProt Q15759); assay: selectivity for p38α over p38β; format: biochemical
Description: as §3

[9] = system: IFNγ; assay: induction of IFNγ by anti-CD3 antibody; format: cell-based; conditions: data not shown
[10] = microarray ratio IL-1β versus compound 57+IL-1β, 24 hours
[11] = microarray ratio TNFα versus compound 57+TNFα

Chain of p38β (Q15759 whole entry): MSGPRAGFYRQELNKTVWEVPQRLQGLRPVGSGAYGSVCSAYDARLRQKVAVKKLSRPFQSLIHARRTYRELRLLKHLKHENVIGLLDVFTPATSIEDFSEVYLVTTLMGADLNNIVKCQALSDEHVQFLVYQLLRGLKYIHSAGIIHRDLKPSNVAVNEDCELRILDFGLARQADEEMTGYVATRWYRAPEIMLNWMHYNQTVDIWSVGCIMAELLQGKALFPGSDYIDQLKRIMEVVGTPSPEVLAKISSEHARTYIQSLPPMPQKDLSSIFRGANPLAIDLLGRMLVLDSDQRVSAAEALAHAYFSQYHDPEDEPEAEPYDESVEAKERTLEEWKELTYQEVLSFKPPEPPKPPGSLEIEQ
Chain of p38α (Q16539 whole entry): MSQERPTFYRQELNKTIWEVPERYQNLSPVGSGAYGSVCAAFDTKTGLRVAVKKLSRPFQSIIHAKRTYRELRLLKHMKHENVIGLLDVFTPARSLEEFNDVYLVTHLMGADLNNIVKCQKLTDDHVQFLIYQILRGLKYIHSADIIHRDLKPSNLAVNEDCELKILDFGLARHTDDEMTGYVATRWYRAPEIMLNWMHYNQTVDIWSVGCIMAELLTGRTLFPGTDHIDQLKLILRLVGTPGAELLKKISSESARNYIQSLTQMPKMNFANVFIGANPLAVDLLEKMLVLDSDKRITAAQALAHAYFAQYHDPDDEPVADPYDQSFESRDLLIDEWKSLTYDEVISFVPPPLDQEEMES

In the case of `COc1cccc(-c2cc(=O)c3ccccc3o2)c1N` [PD 98059], the “erythroid (BFU-E) and myeloid (CFU-GM) colony formation in MDS CD34+ bone marrow cells” value [1] was “not observed”.

With `CCc1nc(-c2ccc(OC)cc2)[nH]c1-c1ccncc1` [SB 202474] the “erythroid (BFU-E) and myeloid (CFU-GM) colony formation in MDS CD34+ bone marrow cells” value [1] was “not observed”.

With `COc1cc2c(cc1C(=O)N1C[C@H](C)N(Cc3ccc(F)cc3)C[C@H]1C)c(C(=O)C(=O)N(C)C)cn2C` [compound 57] the “increase in myeloid and erythroid colony numbers in MDS progenitors” value ([1]; 20 nM-100 nM compound) was 2-3 fold, the “increase in both BFU-E and CFU-GM colony numbers compared to those without compound” value ([2]; TNFα-treated CD34+ progenitors, 50 nM compound) was “about 100%” and the pIC50 [3] was 7.30. For the same compound, the pIC50 [4] was 8.05, the pIC50 [5] was 5.89 and the “CCL2 (MCP-1) differential expression, C57 + IL-1β” value [6, 10] was −1.4. For the same compound, the “CCL7 (MCP3) differential expression, C57 + IL-1β” value [6, 10] was −1.5, the “CXCL1 (GROα) differential expression, C57 + IL-1β” value [6, 10] was −1.6 and the “CXCL3 (GROγ) differential expression, C57 + IL-1β” value [6, 10] was 1.3. The “CXCL6 (GCP2) differential expression, C57 + IL-1β” value [6, 10] was −1.6, the “CXCL10 (IP10) differential expression, C57 + IL-1β” value [6, 10] was 1.0 and the “CXCL11 (ITAC) differential expression, C57 + IL-1β” value [6, 10] was 0.0. For the same compound, the “CXCL16 (SR-PSOX) differential expression, C57 + IL-1β” value [6, 10] was −4.2, the “CCL2 (MCP-1) differential expression, C57 + TNFα (24 h)” value [6, 11] was −1.7 and the “CCL7 (MCP3) differential expression, C57 + TNFα (24 h)” value [6, 11] was −2.2. For the same compound, the “CXCL1 (GROα) differential expression, C57 + TNFα (24 h)” value [6, 11] was −2.9, the “CXCL3 (GROγ) differential expression, C57 + TNFα (24 h)” value [6, 11] was −1.6 and the “CXCL6 (GCP2) differential expression, C57 + TNFα (24 h)” value [6, 11] was −5.3. For the same compound, the “CXCL10 (IP10) differential expression, C57 + TNFα (24 h)” value [6, 11] was −2.9, the “CXCL11 (ITAC) differential expression, C57 + TNFα (24 h)” value [6, 11] was −1.4 and the “CXCL16 (SR-PSOX) differential expression, C57 + TNFα (24 h)” value [6, 11] was 1.4. The pIC50 [7] was greater than 7.30, the “selectivity for p38α over p38β” value [8] was “about 10 fold” and the “induction of IFNγ by anti-CD3 antibody” value [9] was “not inhibited”.

In the case of `CN(C)C(=O)C(=O)c1c[nH]c2cc(Cl)c(C(=O)N3CCC(Cc4ccc(F)cc4)CC3)cc12` [compound 162], the “IFNγ-induced suppression of erythroid and myeloid colony formation” value ([2]; normal CD34+ progenitors, IFNγ, day 14) was “reverses”.
